Experimental data published in patent US20260231929A1, “SOLVENT COMPOSITION FOR AGROCHEMICAL FORMULATIONS” (SPECIALTY OPERATIONS FRANCE, priority 2023, published 2026).

Assay: Test 1: Maximal solubility of an active in a solvent system (visual observation)
Format: physicochemical
Excerpt: The maximal solubility of an active or a combo of actives in a solvent system is characterized by visual observation. At a given concentration, if the mixture is limpid (with the naked eye), the active ingredient(s) is (are) considered to be soluble in the solvent system at this concentration. However, if a sedimentation of the active ingredient(s) appears, it is not soluble anymore in the solvent system and the maximal solubility is reached. The maximal solubility is thus defined as the maximum amount of active ingredient(s) that can be dissolved in the solvent system, equal to the amount at which the mixture remains limpid (with the naked eye). Each active ingredient or combo is added little by little in different solvent systems. The solutions are magnetically stirred until complete dissolution. Then an additional amount of active ingredient is added and this operation is repeated until the last part of active ingredient added could not be dissolved anymore, taking care to stir the solution after each addition of active ingredient.

maximal solubility of Oxyfluorfen (oxyfluorfen (solo) dissolved in the solvent system): 49.0 g/100 g of solvent
maximal solubility of Picoxystrobin (picoxystrobin (solo) dissolved in the solvent system): 30.0 g/100 g of solvent
SMILES: CCCCCCCCCC(=O)N(C)C [Rhodiasolv ® ADMA 10, N,N-dimethyldecanamide]
